According to patent US11412737B2, “Mixtures of beflubutamid or optically enriched forms thereof with a second herbicide” (FMC Corporation, priority 2016, dated 2022):

Columns and labels:
[1] = test system: Common lambsquarters (CHEAL); assay: pre-emergence test, weed control; type: in vivo, Chenopodium album; conditions: pre-emergent, 28 DAT; BFL at 125 g/ha, DCI at 125 g/ha, combination of both
Method in brief: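 Steps: sow seed in furrows and cover with soil, water well, apply diluted compound over the soil surface (30 gallons per acre), move flats to the greenhouse. Evaluate each species at 28 DAT, wheat also at 21 DAT, as percent control versus untreated flats.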

Annual bluegrass (POAAN) = assay: post-emergence test, weed control; type: in vivo, Poa annua; conditions: post-emergent, 28 DAT, height 1-2 cm; rate g ai/ha by row: r7 94, r8 125, r9 188, r10 125, r11 250, r12 94+125, r13 125+125, r14 188+125, r15 94+250, r16 125+250, r17 188+250
Description: (§1) Test compositions containing the test compounds were diluted with water to provide the appropriate test rate concentrations.
(§2) For post-emergence testing, seeds of each species for each rate of application of each herbicide solution were planted in 7.5 cm×7.5 cm plastic pots filled with potting soil. The seeds were germinated and the resulting plants were allowed to grow in a greenhouse until they reached a growth stage, such as height, suitable for testing. Treatments were applied using compressed air in a track spray chamber at 30 gallons/acre (280 L/ha) using a TeeJet 8001E nozzle at 40 psi (2.76 bars). Pots of post-emergent treated plants were returned to the greenhouse and not watered for 24 hours after treatment. Thereafter they were regularly watered and fertilized for the duration of the test.
(§3) The control of weeds was evaluated in each experimental test at 21 for wheat and 28 days after treatment (DAT) for all species. Data were analyzed using Minitab software at 95% confidence interval. The results, shown as an average of the replications, were compared with results observed in untreated control flats in the same tests. Percent control was determined by a method similar to the 0 to 100 rating system disclosed in “Research Methods in Weed Science,” 2nd ed., B. Truelove, Ed.; Southern Weed Science Society; Auburn University, Auburn, Ala., 1977. The rating system is as follows in Table 1.

Green foxtail (SETVI) = assay: post-emergence test, weed control; type: in vivo, Setaria viridis; conditions: post-emergent, 28 DAT, height 4-5 cm, rate g ai/ha by row: r7 94, r8 125, r9 188, r10 125, r11 250, r12 94+125, r13 125+125, r14 188+125, r15 94+250, r16 125+250, r17 188+250
[2] = test system: Littleseed canarygrass (PHAMI); assay: post-emergence test, weed control; type: in vivo, Phalaris minor; conditions: post-emergent, 28 DAT, height 7-8 cm, rate g ai/ha by row: r25 94, r26 125, r27 188, r28 125, r29 250, r30 94+125, r31 125+125, r32 188+125, r33 94+250, r34 125+250, r35 188+250
Description: as §1, §2, §3

Cheat grass (BROSE) = assay: post-emergence test, weed control; type: in vivo; conditions: post-emergent, 28 DAT, height 7 cm; rate g ai/ha by row: r7 94, r8 125, r9 188, r10 125, r11 250, r12 94+125, r13 125+125, r14 188+125, r15 94+250, r16 125+250, r17 188+250
Description: as §1, §2, §3

Common ragweed (AMBEL) = assay: post-emergence test, weed control; type: in vivo; conditions: post-emergent, 28 DAT, height 3-4 cm, rate g ai/ha by row: r7 94, r8 125, r9 188, r10 125, r11 250, r12 94+125, r13 125+125, r14 188+125, r15 94+250, r16 125+250, r17 188+250
Description: as §1, §2, §3

Large crabgrass (DIGSA) = assay: post-emergence test, weed control; type: in vivo; conditions: post-emergent, 28 DAT; for percentage of weed control, DIGSA: height 3-5 cm, rate g ai/ha by row: r25 94, r26 125, r27 188, r28 125, r29 250, r30 94+125, r31 125+125, r32 188+125, r33 94+250, r34 125+250, r35 188+250
Description: as §1, §2, §3

Redrice (ORYSA) = assay: post-emergence test, weed control; type: in vivo; conditions: post-emergent, 28 DAT, height 8 cm, rate g ai/ha by row: r25 94, r26 125, r27 188, r28 125, r29 250, r30 94+125, r31 125+125, r32 188+125, r33 94+250, r34 125+250, r35 188+250
Description: as §1, §2, §3

Rice flatsedge (CYPIR) = assay: post-emergence test, weed control; type: in vivo; conditions: post-emergent, 28 DAT, height 1-2 cm; rate g ai/ha by row: r25 94, r26 125, r27 188, r28 125, r29 250, r30 94+125, r31 125+125, r32 188+125, r33 94+250, r34 125+250, r35 188+250
Description: as §1, §2, §3

Shattercane (SOBIA) = assay: post-emergence test, weed control; type: in vivo; conditions: post-emergent, 28 DAT, height 8 cm, rate g ai/ha by row: r25 94, r26 125, r27 188, r28 125, r29 250, r30 94+125, r31 125+125, r32 188+125, r33 94+250, r34 125+250, r35 188+250
Description: as §1, §2, §3

Wild oat (AVEFA) = assay: post-emergence test, weed control; type: in vivo, Avena fatua; conditions: post-emergent, 28 DAT; for percentage of weed control, AVEFA: height 11 cm, rate g ai/ha by row: r25 94, r26 125, r27 188, r28 125, r29 250, r30 94+125, r31 125+125, r32 188+125, r33 94+250, r34 125+250, r35 188+250; for control of wild oats (AVEFA): DCI at 250 g/ha, combination of both
Description: as §1, §2, §3

CC1(C)CON(Cc2ccc(Cl)cc2Cl)C1=O [DCI, 2-(2,4-dichlorophenyl)methyl-4,4-dimethyl-3-isoxazolidinone]
control of lambsquarters (CHEAL) [1]: 24% | percentage of weed control, POAAN (Annual bluegrass (POAAN)): 0% | percentage of weed control, SETVI (Green foxtail (SETVI); 125 g ai/ha): 6% | percentage of weed control, SETVI (Green foxtail (SETVI); 250 g ai/ha): 5% | percentage of weed control, PHAMI ([2]; 125 g ai/ha): 4% | percentage of weed control, PHAMI ([2]; 250 g ai/ha): 2% | percentage of weed control, BROSE (Cheat grass (BROSE)): 0% | percentage of weed control, AMBEL (Common ragweed (AMBEL); 125 g ai/ha): 73% | percentage of weed control, AMBEL (Common ragweed (AMBEL); 250 g ai/ha): 77% | percentage of weed control, DIGSA (Large crabgrass (DIGSA); 125 g ai/ha): 17% | percentage of weed control, DIGSA (Large crabgrass (DIGSA); 250 g ai/ha): 22% | control of large crabgrass (DIGSA) (Large crabgrass (DIGSA); BFL at 188 g/ha, DCI at 125 g/ha, combination of both): 17% | percentage of weed control, ORYSA (Redrice (ORYSA); 125 g ai/ha): 26% | percentage of weed control, ORYSA (Redrice (ORYSA); 250 g ai/ha): 42% | percentage of weed control, CYPIR (Rice flatsedge (CYPIR)): 0% | percentage of weed control, SOBIA (Shattercane (SOBIA); 125 g ai/ha): 1% | percentage of weed control, SOBIA (Shattercane (SOBIA); 250 g ai/ha): 4% | percentage of weed control, AVEFA (Wild oat (AVEFA); 125 g ai/ha): 60% | percentage of weed control, AVEFA (Wild oat (AVEFA); 250 g ai/ha): 61% | control of wild oats (AVEFA) (Wild oat (AVEFA); BFL at 125 g/ha): 61% | control of wild oats (AVEFA) (Wild oat (AVEFA); BFL at 188 g/ha): 61%
